Here are results for four molecules from US8524755B2 (priority 2009, dated 2013).

For one assay, the system named is kainate. In words: Binding kainate (ag). Also on record: species or system rat. The method, then: (§1) Radioligand binding assay methods utilized to measure the activity of compounds of the invention will be familiar to those skilled in the art. In each assay case, the assay components such as, for example, the cell-type, ligand, reference compound and the like, will be familiar to practitioners of such an assay.
(§2) Analysis and Expression of Results: Compounds of the invention were tested in the biochemical assays and percent inhibition of specific binding was determined. The specific ligand binding to the receptors is defined as the difference between the total binding and the nonspecific binding determined in the presence of an excess of unlabelled ligand. The results are expressed as a percent inhibition of control specific binding (100−((measured specific binding/control specific binding)×100)) obtained in the presence of test compounds.

The target in assay [1] is T1, choline transporter (CHT1) (h) (Homo sapiens, UniProt Q9GZV3).
T1 construct: expressed in transfected cells; host or cells: CHO cells
T1 sequence (Q9GZV3 1-580): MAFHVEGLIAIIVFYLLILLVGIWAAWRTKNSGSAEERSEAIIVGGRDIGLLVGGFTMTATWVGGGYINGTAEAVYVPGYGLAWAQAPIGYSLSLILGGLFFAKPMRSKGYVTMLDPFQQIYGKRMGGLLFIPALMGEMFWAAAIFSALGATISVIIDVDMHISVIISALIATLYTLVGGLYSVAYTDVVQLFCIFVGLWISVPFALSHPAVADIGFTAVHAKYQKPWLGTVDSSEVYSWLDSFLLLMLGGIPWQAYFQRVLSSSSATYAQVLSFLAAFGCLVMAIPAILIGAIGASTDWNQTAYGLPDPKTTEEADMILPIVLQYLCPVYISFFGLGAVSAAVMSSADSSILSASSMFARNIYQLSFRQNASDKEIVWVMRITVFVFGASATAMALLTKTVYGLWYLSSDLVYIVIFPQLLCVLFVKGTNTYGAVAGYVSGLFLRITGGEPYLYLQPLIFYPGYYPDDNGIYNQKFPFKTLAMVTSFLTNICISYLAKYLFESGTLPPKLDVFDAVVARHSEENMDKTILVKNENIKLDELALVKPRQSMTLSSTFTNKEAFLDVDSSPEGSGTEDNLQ
In words: Binding choline transporter (CHT1) (h) (aa). The conditions noted are these: read-out: % Inhibition of Control Specific Binding @ 10 μM. The method, then: as §1, §2

Another assay has as its target T2, Glucocorticoid GR (h) (Homo sapiens, UniProt P04150).
T2 construct: IM-9 cells (cytosol); endogenous in cells; host or cells: IM-9 cells (cytosol)
T2 sequence (P04150 1-777): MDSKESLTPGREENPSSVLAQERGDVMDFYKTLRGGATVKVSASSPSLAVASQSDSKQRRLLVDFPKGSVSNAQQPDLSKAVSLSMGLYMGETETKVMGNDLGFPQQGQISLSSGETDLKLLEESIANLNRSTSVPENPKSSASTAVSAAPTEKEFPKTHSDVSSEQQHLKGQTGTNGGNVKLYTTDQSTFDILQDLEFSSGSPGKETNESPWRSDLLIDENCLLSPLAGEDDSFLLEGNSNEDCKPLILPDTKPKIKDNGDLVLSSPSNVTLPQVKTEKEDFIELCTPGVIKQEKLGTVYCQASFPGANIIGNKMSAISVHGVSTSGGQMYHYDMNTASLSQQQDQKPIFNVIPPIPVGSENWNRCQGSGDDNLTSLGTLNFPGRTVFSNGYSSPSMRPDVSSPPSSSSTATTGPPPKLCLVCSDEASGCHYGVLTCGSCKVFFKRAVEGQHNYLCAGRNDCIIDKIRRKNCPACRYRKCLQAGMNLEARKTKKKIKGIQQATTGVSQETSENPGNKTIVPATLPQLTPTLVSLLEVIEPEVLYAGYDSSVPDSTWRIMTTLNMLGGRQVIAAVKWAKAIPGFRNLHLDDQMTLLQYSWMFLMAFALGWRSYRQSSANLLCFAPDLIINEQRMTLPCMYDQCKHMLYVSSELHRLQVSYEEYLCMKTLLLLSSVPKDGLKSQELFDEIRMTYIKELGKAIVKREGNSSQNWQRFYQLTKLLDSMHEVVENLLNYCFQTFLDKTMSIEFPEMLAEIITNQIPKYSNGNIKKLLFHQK
In words: Binding GR (h) (ag). Conditions: read-out: % Inhibition of Control Specific Binding @ 10 μM. As for the experimental part:
as §1, §2

For another assay, the target named is T3, Cannabinoid CB2 (h) (Homo sapiens, UniProt P34972).
T3 construct: expressed in transfected cells; host or cells: CHO cells
T3 sequence (P34972 whole entry): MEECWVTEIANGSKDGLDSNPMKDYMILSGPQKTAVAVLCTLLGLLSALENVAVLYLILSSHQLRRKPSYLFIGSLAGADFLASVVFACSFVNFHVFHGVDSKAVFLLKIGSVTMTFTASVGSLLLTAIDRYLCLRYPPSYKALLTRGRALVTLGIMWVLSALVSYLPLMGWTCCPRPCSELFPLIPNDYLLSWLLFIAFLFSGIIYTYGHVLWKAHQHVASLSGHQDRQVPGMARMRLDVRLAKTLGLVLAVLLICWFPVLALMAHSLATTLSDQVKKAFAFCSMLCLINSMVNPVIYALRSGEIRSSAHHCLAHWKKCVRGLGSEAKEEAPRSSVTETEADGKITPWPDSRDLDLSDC
In words: Binding CB2 (h) (ag). The conditions noted are these: read-out: % Inhibition of Control Specific Binding @ 10 μM. The method, then:
as §1, §2

In assay [2] the target is T4, norepinephrine transporter (h) (Homo sapiens, UniProt P23975).
T4 construct: expressed in transfected cells; host or cells: CHO cells
T4 sequence (P23975 whole entry): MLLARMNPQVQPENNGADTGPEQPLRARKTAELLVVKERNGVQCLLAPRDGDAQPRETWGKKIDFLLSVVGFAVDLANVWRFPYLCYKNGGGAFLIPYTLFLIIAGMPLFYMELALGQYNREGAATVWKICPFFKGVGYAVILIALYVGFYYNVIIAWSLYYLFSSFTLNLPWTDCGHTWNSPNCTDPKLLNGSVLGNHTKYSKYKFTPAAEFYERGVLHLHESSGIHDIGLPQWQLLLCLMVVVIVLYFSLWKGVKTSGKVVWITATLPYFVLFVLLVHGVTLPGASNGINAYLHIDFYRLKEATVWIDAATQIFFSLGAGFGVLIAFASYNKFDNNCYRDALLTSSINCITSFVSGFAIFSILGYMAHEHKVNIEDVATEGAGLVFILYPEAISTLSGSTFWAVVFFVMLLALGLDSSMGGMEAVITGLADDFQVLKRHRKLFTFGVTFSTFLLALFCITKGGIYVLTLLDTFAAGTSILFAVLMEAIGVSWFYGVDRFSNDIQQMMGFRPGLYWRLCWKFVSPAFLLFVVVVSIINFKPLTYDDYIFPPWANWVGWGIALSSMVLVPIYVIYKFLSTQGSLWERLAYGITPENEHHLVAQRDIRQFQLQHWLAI
Kind of assay: Binding norepinephrine transporter (h) (aa). Conditions: read-out: % Inhibition of Control Specific Binding @ 10 μM. The method, then: as §1, §2

For the next assay, the system named is KATP channel. In words: Binding KATP channel (aa). Also on record: species or system rat. The method, then: as §1, §2
Assay [3] relates to Ca^2+ channel (L, verapamil site) (phenylalkylamine). In words: Binding Ca2+ channel (L, verapamil site) (aa). Also on record: species or system rat. As for the experimental part: as §1, §2
The target in another assay is T5, Histamine H3 (h) (Homo sapiens, UniProt Q9Y5N1).
T5 construct: expressed in transfected cells; host or cells: CHO cells
T5 sequence (Q9Y5N1 whole entry): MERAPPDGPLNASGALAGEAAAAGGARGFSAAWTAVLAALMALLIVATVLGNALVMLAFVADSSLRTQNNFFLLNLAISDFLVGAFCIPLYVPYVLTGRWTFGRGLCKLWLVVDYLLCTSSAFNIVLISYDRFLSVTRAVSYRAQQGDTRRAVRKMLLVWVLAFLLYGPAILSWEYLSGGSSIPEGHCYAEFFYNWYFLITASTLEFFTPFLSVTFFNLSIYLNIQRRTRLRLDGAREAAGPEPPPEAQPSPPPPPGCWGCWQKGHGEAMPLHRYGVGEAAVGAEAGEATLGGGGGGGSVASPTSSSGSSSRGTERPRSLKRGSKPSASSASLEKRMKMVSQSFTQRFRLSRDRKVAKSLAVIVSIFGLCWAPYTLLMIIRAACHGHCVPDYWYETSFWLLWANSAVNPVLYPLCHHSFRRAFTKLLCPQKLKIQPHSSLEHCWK
Kind of assay: Binding H3 (h) (ag). The conditions noted are these: read-out: % Inhibition of Control Specific Binding @ 10 μM. The method, then:
as §1, §2

The subject of a further assay is KV channel. In words: Binding KV channel (aa). Also on record: species or system rat. As for the experimental part:
as §1, §2

In the next assay the test system is P2Y. Kind of assay: Binding P2Y (ag). Also on record: species or system rat. The method, then:
as §1, §2

The next assay deals with T6, MAO-B (h) (Homo sapiens, UniProt P27338).
T6 construct: human platelets; from tissue; host or cells: human platelets
T6 sequence (P27338 1-520): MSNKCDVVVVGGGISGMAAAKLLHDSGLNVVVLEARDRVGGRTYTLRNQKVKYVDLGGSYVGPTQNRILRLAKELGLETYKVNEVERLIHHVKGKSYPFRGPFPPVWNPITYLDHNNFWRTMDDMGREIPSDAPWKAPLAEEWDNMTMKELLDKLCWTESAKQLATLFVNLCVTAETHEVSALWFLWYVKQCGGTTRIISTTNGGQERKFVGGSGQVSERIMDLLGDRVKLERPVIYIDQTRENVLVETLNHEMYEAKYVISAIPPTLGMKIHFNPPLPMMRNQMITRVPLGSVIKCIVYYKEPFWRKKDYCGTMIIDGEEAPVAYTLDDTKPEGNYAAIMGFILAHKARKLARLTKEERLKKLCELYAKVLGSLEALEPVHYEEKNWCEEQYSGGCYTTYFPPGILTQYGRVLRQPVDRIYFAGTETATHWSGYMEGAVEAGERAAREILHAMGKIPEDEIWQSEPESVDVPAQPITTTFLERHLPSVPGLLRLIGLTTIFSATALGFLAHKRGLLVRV
Kind of assay: Enzyme assay MAO-B (h). The conditions noted are these: read-out: % Inhibition of Control Values @ 10 μM. It counts as biochemical. The source says:
The enzyme assays provided below will be familiar to those skilled in the art.
Analysis and Expression of Results: The results are expressed as a percent of control specific activity ((measured specific activity/control specific activity)×100) obtained in the presence of the test compounds.

Another assay deals with T7, Vasopressin V1a (h) (Homo sapiens, UniProt P37288).
T7 construct: expressed in transfected cells; host or cells: CHO cells
T7 sequence (P37288 whole entry): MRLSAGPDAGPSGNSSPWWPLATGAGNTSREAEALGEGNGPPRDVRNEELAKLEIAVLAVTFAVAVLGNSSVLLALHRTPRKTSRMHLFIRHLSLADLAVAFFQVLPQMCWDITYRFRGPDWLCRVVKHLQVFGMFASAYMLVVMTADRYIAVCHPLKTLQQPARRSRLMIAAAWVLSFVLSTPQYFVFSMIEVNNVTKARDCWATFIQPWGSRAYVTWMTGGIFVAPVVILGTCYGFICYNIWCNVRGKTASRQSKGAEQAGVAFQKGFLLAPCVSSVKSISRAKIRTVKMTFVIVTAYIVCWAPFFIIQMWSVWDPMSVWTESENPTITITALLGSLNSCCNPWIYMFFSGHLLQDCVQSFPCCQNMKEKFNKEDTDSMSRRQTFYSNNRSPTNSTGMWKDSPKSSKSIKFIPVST
In words: Binding V1a (h) (ag). Conditions: read-out: % Inhibition of Control Specific Binding @ 10 μM. The method, then:
as §1, §2

For `CNC(=O)c1ccc(N2C(=O)N(c3ccc(C#N)c(C(F)(F)F)c3)C(=O)C2(C)C)cc1F` [(MIV), 4-(3-(4-cyano-3-(trifluoromethyl)phenyl)-5,5-dimethyl-2,4-dioxoimidazolidin-1-yl)-2-fluoro-N-methylbenzamide], the “% Inhibition of Control Specific Binding @ 10 μM” value (“% Inhibition” below) in the assay with kainate is −8%; in the assay on KATP channel it was 7%; in assay [3], −5%; in the assay with KV channel, −4%; in the assay on P2Y it was 0%. Further, the inhibition (usually the relative decrease from the control value, in per cent) at 10 µM in assay [1] is 10%; on Glucocorticoid GR (h) it was 4%; at Cannabinoid CB2 (h), 1%; in assay [2] it was 20%; on Histamine H3 (h) it was -4%; on MAO-B (h) it was 11%. In addition, the inhibition at 10 µM at Vasopressin V1a (h) was -8%.
With `CC1(C)C(=O)N(c2ccc(C#N)c(C(F)(F)F)c2)C(=O)N1c1ccc(C(N)=O)c(F)c1` [(MIII), 4-(3-(4-cyano-3-(trifluoromethyl)phenyl)-5,5-dimethyl-2,4-dioxoimidazolidin-1-yl)-2-fluorobenzamide], the “% Inhibition” value is recorded as −10% in the assay on kainate; 7% in the assay on KATP channel; −1% in assay [3]; −2% with KV channel; −1% with P2Y. The inhibition at 10 µM in assay [1] was -13%; at Glucocorticoid GR (h) it was 0%; on Cannabinoid CB2 (h), -3%; in assay [2] it was 9%; at Histamine H3 (h) it was -13%; at MAO-B (h), -5%. The inhibition at 10 µM at Vasopressin V1a (h) is -1%.
As to `CC1(C)C(=O)N(c2ccc(C#N)c(C(F)(F)F)c2)C(=S)N1c1ccc(C(=O)O)c(F)c1` [(MI), 4-(3-(4-cyano-3-(trifluoromethyl)phenyl)-5,5-dimethyl-4-oxo-2-thioxoimidazolidin-1-yl)-2-fluorobenzoic acid], the “% Inhibition” value in the assay on kainate is reported as −4%; in the assay with KATP channel, 17%; in assay [3], −2%; in the assay with KV channel it was −2%; with P2Y it was −19%. Further, the inhibition at 10 µM in assay [1] was -16%; on Glucocorticoid GR (h), 5%; at Cannabinoid CB2 (h), -2%; in assay [2], 56%; at Histamine H3 (h) it was -3%; at MAO-B (h), 8%. For the same molecule, the inhibition at 10 µM on Vasopressin V1a (h) came out at 2%.
For `CC1(C)C(=O)N(c2ccc(C#N)c(C(F)(F)F)c2)C(=S)N1c1ccc(C(N)=O)c(F)c1` [(MII), 4-(3-(4-Cyano-3-(trifluoromethyl)phenyl)-5,5-dimethyl-4-oxo-2-thioxoimidazolidin-1-yl)-2-fluorobenzamide], the “% Inhibition” value with kainate is listed as −21%; in the assay on KATP channel it was 24%; in assay [3], −13%; with KV channel, −3%; in the assay on P2Y it was −2%. In addition, the inhibition at 10 µM in assay [1] was -22%; on Glucocorticoid GR (h), 30%; at Cannabinoid CB2 (h), 1%; in assay [2], -13%; on Histamine H3 (h) it was -2%; at MAO-B (h) it was -4%. Moreover, the inhibition at 10 µM on Vasopressin V1a (h) is 15%.
